Test results reported in patent publication US20010027213A1, “Use of pyrethroid compounds to promote hair growth” (priority 1998, published 2001).

Columns and labels:
Assay type in all cases: in vivo
[1] = system: C3H strain mice; experiment: Hair growth on clipped back skin, repeat with minoxidil control, Example 5; parameters: Level of hair growth (unaided visual inspection): scale not given here
Experimental: (§1) The ability of topical administration of pyrethroid compounds to promote hair growth was assessed in female C3H strain mice (10 weeks old; n=5/group). Hair on the back skin of the mice was clipped carefully with an electric clipper. 5 μL/cm^2 of the five compositions tested in the examples above were applied to the mice daily. The level of hair growth at the applied skin areas were evaluated by unaided visual inspection at the indicated time. Cyclosporin A was used as a control.
The experiment described in Example 4 was repeated with a commercially available hair growth-promoting compound (5% minoxidil) as a control.

[2] = system: mice (C3H strain); experiment: Ear thickness (primary skin irritancy) after topical application, Example 1
Experimental: The following example was performed to determine if pyrethroid compounds cause skin irritation (as indicated by ear thickness in mice). Skin irritants may contribute to promoting hair growth.
Prior to the experiment, ear thickness of mice (C3H strain, female, 16 weeks of age, n=3/group) was measured with a thickness gage (Mitsutoyo Corp.). After measuring ear thickness of both ears, 10 μL of ethanol was applied on left ear and 10 μL of a pyrethroid solution (1% pyrethroid compound in ethanol) was applied to the right ear. Ear thickness was measured for three consecutive days after administration.

[3] = system: mice (Sencar strain); experiment: Ear thickness after TPA plus pyrethroid application, Example 2
Experimental: Another ear thickness experiment was performed. Ear thickness of mice (Sencar strain, female, 10 weeks of age, n =3/group) was measured with a thickness gage (Mitsutoyo Corp.). After measuring the thickness of both ears at the beginning of the experiment, 20 μL of 12-O-tetradecanoyl-phorbol 13-acetate (TPA) at a concentration of 10^−4 M in acetone was applied on both ears, followed by the application of 10 μL of ethanol on the left ears and 10 μL of the four compositions tested in Example 1 on the right ears (at a concentration of 1% of pyrethroid compound in ethanol solution). Again, ear thickness was monitored over three consecutive days following administration of the compositions.

[4] = system: mice of the C3H strain; experiment: Skin irritancy on clipped back skin, visual score, Example 3; conditions: three repeated topical administration, 1% in ethanol
Experimental: This experiment was conducted to test the skin irritancy of the compositions of this invention on hair-growing areas of test subjects, i.e., female mice (10 weeks old) of the C3H strain (n=5 group). After clipping the hair of the back skin of mice with an electric clipper, 5 μL/cm^2 of each four composition tested in Examples 1 and 2 (at a concentration of 1% in an ethanol solution) were applied. The application was administered once a day, for 3 consecutive days. Skin irritation was evaluated by unaided visual inspection at the end of the third day.

[5] = system: C3H strain mice; experiment: Hair growth on clipped back skin, topical daily application, Example 4; conditions: for Level of hair growth (unaided visual inspection): 1%, 5 μL/cm^2 daily, n=5/group
Experimental: as §1, with “time.” for “time. Cyclosporin A was used as a control.”

Nc1cc(N2CCCCC2)nc(N)[n+]1[O-] [Minoxidil, minoxidil]
Level of hair growth (unaided visual inspection) ([1]; 5%, Week 1): 0 | Level of hair growth (unaided visual inspection) ([1]; 5%, Week 2): 0 | Level of hair growth (unaided visual inspection) ([1]; 5%, Week 3): 2 | Level of hair growth (unaided visual inspection) ([1]; 5%, Week 4): 3 | Level of hair growth (unaided visual inspection) ([1]; 5%, Week 5): 4 | Level of hair growth (unaided visual inspection) ([1]; 5%, Week 6): 4

CC1(C)[C@H](C(=O)O[C@H](C#N)c2cccc(Oc3ccccc3)c2)[C@@H]1C=C(Br)Br [Deltamethrin, deltamethrin]
Ear thickness compared to ethanol ([2]; 1% in ethanol, C3H mice): did not increase ear thickness | Right ear thickness ([2]; day 0 (before application), C3H female mice, n=3): 27.0 ×0.01 mm | Right ear thickness ([2]; day 1, 10 μL of 1% in ethanol on right ear, C3H mice): 27.3 ×0.01 mm | Right ear thickness ([2]; day 2, 10 μL of 1% in ethanol on right ear, C3H mice): 27.3 ×0.01 mm | Right ear thickness ([2]; day 3, 10 μL of 1% in ethanol on right ear, C3H mice): 28.0 ×0.01 mm | Right ear thickness ([3]; day 0 (before application), Sencar female mice, n=3): 26.0 ×0.01 mm | Right ear thickness ([3]; day 1, 20 μL TPA 10^−4 M in acetone then 10 μL of 1% in ethanol, Sencar mice): 27.3 ×0.01 mm | Right ear thickness ([3]; day 2, 20 μL TPA 10^−4 M in acetone then 10 μL of 1% in ethanol, Sencar mice): 29.0 ×0.01 mm | Right ear thickness ([3]; day 3, 20 μL TPA 10^−4 M in acetone then 10 μL of 1% in ethanol, Sencar mice): 28.0 ×0.01 mm | Skin irritation (redness) [4]: failed to cause skin irritation | Promoting hair growth ([5]; 1% topical daily): effective in promoting hair growth | Level of hair growth (unaided visual inspection) ([5]; Day 7): 0 | Level of hair growth (unaided visual inspection) ([5]; Day 14): 0 | Level of hair growth (unaided visual inspection) ([5]; Day 19): 1 | Level of hair growth (unaided visual inspection) ([5]; Day 29): 5 | Level of hair growth (unaided visual inspection) ([5]; Day 36): 5 | Level of hair growth (unaided visual inspection) ([1]; 0.01%, Week 1): 0 | Level of hair growth (unaided visual inspection) ([1]; 0.01%, Week 2): 0 | Level of hair growth (unaided visual inspection) ([1]; 0.01%, Week 3): 1 | Level of hair growth (unaided visual inspection) ([1]; 0.01%, Week 4): 1 | Level of hair growth (unaided visual inspection) ([1]; 0.01%, Week 5): 1 | Level of hair growth (unaided visual inspection) ([1]; 0.01%, Week 6): 3 | Level of hair growth (unaided visual inspection) ([1]; 0.1%, Week 1): 0 | Level of hair growth (unaided visual inspection) ([1]; 0.1%, Week 2): 0 | Level of hair growth (unaided visual inspection) ([1]; 0.1%, Week 3): 5 | Level of hair growth (unaided visual inspection) ([1]; 0.1%, Week 4): 5 | Level of hair growth (unaided visual inspection) ([1]; 0.1%, Week 5): 5 | Level of hair growth (unaided visual inspection) ([1]; 0.1%, Week 6): 5 | Level of hair growth (unaided visual inspection) ([1]; 1%, Week 1): 0 | Level of hair growth (unaided visual inspection) ([1]; 1%, Week 2): 2 | Level of hair growth (unaided visual inspection) ([1]; 1%, Week 3): 5 | Level of hair growth (unaided visual inspection) ([1]; 1%, Week 4): 5 | Level of hair growth (unaided visual inspection) ([1]; 1%, Week 5): 5 | Level of hair growth (unaided visual inspection) ([1]; 1%, Week 6): 5 | Promoting hair growth ([1]; concentrations of 0.1% and 1% in ethanol solutions): effective in promoting hair growth
